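Five compound concentrations were applied to cells in 96-well plates for 48 hours; endpoints were derived by simple linear interpolation of the resulting dose-response curve. Here, GI50 denotes the concentration required for 50% inhibition of growth. At the TGI there is no net growth.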

Some test systems named below: OVCAR-4 ovarian; SNB-75 CNS; UACC-257 melanoma; UACC-62 melanoma; KM12 colon; MDA-MB-231 breast; CAKI-1 renal; HCT-116 colon.
Common to all, as to test: NCI tumour cell line growth inhibition, 48 h

On to `COc1ccc2c(c1)C(=O)c1c-2n(CCCN=[N+]=[N-])c(=O)c2cc(N)ccc12`, for which the GI50 with OVCAR-4 ovarian was 17.8 µM; with UACC-257 melanoma it was greater than 100 µM; with UACC-62 melanoma, greater than 100 µM; with KM12 colon it was 53.6 µM; in the test with MDA-MB-231 breast it was greater than 100 µM; with CAKI-1 renal, greater than 100 µM. In addition, the GI50 in the test on HCT-116 colon was greater than 100 µM. For the same compound, the TGI in the test with OVCAR-4 ovarian, in the test on SNB-75 CNS, in the test with UACC-257 melanoma, with UACC-62 melanoma, with KM12 colon and with MDA-MB-231 breast was greater than 100 µM each time. In addition, the TGI in the test with CAKI-1 renal and in the test with HCT-116 colon was greater than 100 µM in each case.
For `CC(=O)OC1CC2(O)C(CCC3(C)C(c4ccc(=O)oc4)CCC32O)C2(C)CCC(OC3OC(CO)C(O)C(O)C3O)C=C12` (stereo not given), the GI50 was 0.0273 µM in the test with OVCAR-4 ovarian; 0.0333 µM with SNB-75 CNS; 0.0383 µM in the test on UACC-257 melanoma; 0.03 µM in the test with UACC-62 melanoma; 0.0416 µM in the test on KM12 colon; 0.0684 µM with MDA-MB-231 breast. Moreover, the GI50 was 0.0306 µM with CAKI-1 renal and 0.0111 µM in the test with HCT-116 colon. In addition, the TGI in the test on OVCAR-4 ovarian is 0.153 µM; in the test on SNB-75 CNS it was 0.192 µM; in the test on UACC-257 melanoma it was 0.206 µM; in the test on UACC-62 melanoma it was 0.101 µM; in the test on KM12 colon, 0.2 µM; with MDA-MB-231 breast, 0.396 µM. Moreover, the TGI in the test with CAKI-1 renal is 0.131 µM; in the test with HCT-116 colon, 0.105 µM.
Turning to `NC(=NCCO)c1ccc(N2CCCN(c3ccc(C(N)=NCCO)cc3)CC2)cc1`, the GI50 with OVCAR-4 ovarian, in the test on SNB-75 CNS, with UACC-257 melanoma, in the test with UACC-62 melanoma, with KM12 colon and with MDA-MB-231 breast was greater than 100 µM throughout. For the same compound, the GI50 with CAKI-1 renal and with HCT-116 colon was greater than 100 µM each time. Further, the TGI in the test on OVCAR-4 ovarian, in the test on SNB-75 CNS, in the test on UACC-257 melanoma, in the test on UACC-62 melanoma, in the test with KM12 colon and in the test with MDA-MB-231 breast was greater than 100 µM in each case. Besides, the TGI with CAKI-1 renal and with HCT-116 colon was greater than 100 µM throughout.
In the case of `CC(=O)N1N=C(c2ccc(Nc3nc(Nc4ccc(F)cc4)nc(Nc4ccc(Cl)cc4)n3)cc2)CC1c1ccc(N(C)C)cc1` (stereo not given), the GI50 in the test with OVCAR-4 ovarian is 4.41 µM; in the test on SNB-75 CNS it was 3.02 µM; in the test on UACC-257 melanoma, 7.67 µM; in the test with UACC-62 melanoma, 2.26 µM; in the test with KM12 colon, 6.02 µM; with MDA-MB-231 breast, 5.66 µM. Moreover, the GI50 was 9.28 µM in the test with CAKI-1 renal and 2.42 µM in the test with HCT-116 colon. Moreover, the TGI with OVCAR-4 ovarian is greater than 100 µM; with SNB-75 CNS, 20.3 µM; in the test with UACC-257 melanoma it was 26.1 µM; in the test on UACC-62 melanoma it was 7.79 µM; in the test on KM12 colon it was 20.9 µM; with MDA-MB-231 breast, 21 µM. Also, the values for the TGI in the test with CAKI-1 renal and in the test on HCT-116 colon were greater than 54.3 µM and 10.1 µM, respectively.
`Oc1cc2c(cc1C(c1ccc3c(c1)OCO3)N1CCN(C(c3ccc4c(c3)OCO4)c3cc4c(cc3O)OCO4)CC1)OCO2` (stereo not given): the TGI with OVCAR-4 ovarian came out at 16.5 µM; with SNB-75 CNS it was 13.7 µM; in the test with UACC-257 melanoma, 33.4 µM; in the test with UACC-62 melanoma, 27.5 µM; in the test on KM12 colon, 30.8 µM; in the test with MDA-MB-231 breast, 29.1 µM. In addition, the TGI with CAKI-1 renal amounted to 47.9 µM; in the test on HCT-116 colon, 29.1 µM.
As to `O=c1oc2c(cc1-c1ccccc1)C(O)Oc1ccccc1-2` (stereo not given), the GI50 with OVCAR-4 ovarian is 14.8 µM; in the test with SNB-75 CNS, 3.54 µM; in the test on UACC-257 melanoma, 12.4 µM; with UACC-62 melanoma it was 12.8 µM; in the test on KM12 colon, 3.04 µM; in the test on MDA-MB-231 breast, 15.5 µM. Moreover, the GI50 with CAKI-1 renal was 5.09 µM; with HCT-116 colon, 3.9 µM. Moreover, the TGI with OVCAR-4 ovarian is 70.6 µM; in the test on SNB-75 CNS, 29 µM; with UACC-257 melanoma it was 35.4 µM; in the test with UACC-62 melanoma it was 39.7 µM; in the test with KM12 colon, 23.4 µM; with MDA-MB-231 breast it was greater than 100 µM. Moreover, the TGI with CAKI-1 renal is greater than 100 µM; with HCT-116 colon, 34.6 µM.
Take `NC(=S)N/N=C/c1ccc(OC(=O)COc2ccccc2)cn1`: the GI50 with OVCAR-4 ovarian is 3.39 µM; with SNB-75 CNS, 10.4 µM; with UACC-257 melanoma, 14.7 µM; with UACC-62 melanoma, 4.67 µM; with KM12 colon, 3.16 µM; with MDA-MB-231 breast it was 8.27 µM. The GI50 with CAKI-1 renal is 4.01 µM; with HCT-116 colon, 5.98 µM. Moreover, the TGI is greater than 100 µM in the test with OVCAR-4 ovarian; greater than 100 µM in the test on SNB-75 CNS; 88.9 µM with UACC-257 melanoma; greater than 100 µM with UACC-62 melanoma; greater than 100 µM in the test on KM12 colon; greater than 100 µM with MDA-MB-231 breast. In addition, the TGI in the test on CAKI-1 renal and in the test on HCT-116 colon was greater than 100 µM in each case.
`COc1cc2oc(-c3cccc(C(=O)Nc4ccc(C)cc4)c3)cc(=O)c2c(OC)c1OC`: the GI50 in the test on OVCAR-4 ovarian is 2 µM; in the test with SNB-75 CNS, 1.16 µM; in the test with UACC-257 melanoma, 1.92 µM; in the test with UACC-62 melanoma, 2.35 µM; in the test with KM12 colon, 3.66 µM; with MDA-MB-231 breast, 0.468 µM. Moreover, the GI50 in the test with CAKI-1 renal is 0.315 µM; in the test on HCT-116 colon, 2.21 µM. The TGI in the test on OVCAR-4 ovarian was greater than 100 µM; in the test on SNB-75 CNS, 5.38 µM; with UACC-257 melanoma, 4.5 µM; in the test with UACC-62 melanoma, 6.42 µM; in the test with KM12 colon it was greater than 100 µM; in the test with MDA-MB-231 breast, 3.23 µM. Also, the TGI in the test on CAKI-1 renal stood at 3.22 µM; in the test on HCT-116 colon, 21.8 µM.
As for `O=C(O)c1cc2cc(O)ccc2[nH]1`, the GI50 with OVCAR-4 ovarian, in the test on SNB-75 CNS, with UACC-257 melanoma, in the test with UACC-62 melanoma, in the test on KM12 colon and in the test with MDA-MB-231 breast was greater than 100 µM throughout. Further, the GI50 in the test with CAKI-1 renal and in the test on HCT-116 colon was greater than 100 µM each time. Further, the TGI in the test with OVCAR-4 ovarian, in the test with SNB-75 CNS, with UACC-257 melanoma, in the test on UACC-62 melanoma, with KM12 colon and with MDA-MB-231 breast was greater than 100 µM throughout. Also, the TGI with CAKI-1 renal and with HCT-116 colon was greater than 100 µM throughout.

For the origin of these results see PubChem BioAssay (NCI).
